The assay has as its target T1, human H3 receptors (Homo sapiens, UniProt Q9Y5N1).
T1 construct: host or cells: CHO-K1
The assay can be described thus: cAMP quantification assay for human H3 receptor testing. It is filed as cell-based. Conditions: CHO-K1 cells expressing human H3 receptors; inhibition of agonist-induced decrease of cAMP; 100 nM histamine, 10 μM forskolin; read-out: Potency range (IC50 values). In outline: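 CHO-K1 cells expressing human H3 (10,000/well) were preincubated 30 min at 37 °C with compound in PBS containing 1 mM IBMX and 0.03% BSA. They were then challenged 30 min with agonist solution (100 nM histamine plus 10 μM forskolin). cAMP was quantified by enzyme-complementation luminescence, with 8 concentrations in triplicate at 1% DMSO.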
T1 sequence (Q9Y5N1 whole entry): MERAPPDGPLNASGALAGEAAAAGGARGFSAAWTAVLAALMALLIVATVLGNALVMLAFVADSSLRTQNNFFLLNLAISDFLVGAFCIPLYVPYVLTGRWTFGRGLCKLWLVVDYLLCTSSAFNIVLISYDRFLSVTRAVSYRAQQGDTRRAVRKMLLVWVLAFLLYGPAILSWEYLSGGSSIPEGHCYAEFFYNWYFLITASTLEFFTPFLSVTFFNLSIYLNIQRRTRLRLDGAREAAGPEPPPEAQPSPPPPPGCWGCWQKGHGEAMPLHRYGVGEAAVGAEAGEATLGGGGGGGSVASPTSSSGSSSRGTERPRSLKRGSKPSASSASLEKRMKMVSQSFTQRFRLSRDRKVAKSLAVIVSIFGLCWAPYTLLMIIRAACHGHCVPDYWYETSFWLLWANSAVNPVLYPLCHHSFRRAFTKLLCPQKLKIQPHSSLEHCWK
Turning to `CNC(=O)c1ccc(NC2CN(C(=O)N3CCCN(C4CCC4)CC3)C2)cn1` [Example 110, 5-({1-[(4-cyclobutyl-1,4-diazepan-1-yl)carbonyl]azetidin-3-yl}amino)-N-methylpyridine-2-carboxamide], the IC50 was less than 100 nM.
For `Cc1nccc(OC2CN(C(=O)N3CCCN(C4CCC4)CC3)C2)c1F` [Example 151, 1-cyclobutyl-4-({3-[(3-fluoro-2-methylpyridin-4-yl)oxy]azetidin-1-yl}carbonyl)-1,4-diazepane], the IC50 is less than 100 nM.
In the case of `NC1CN(C(=O)N2CCCN(C3CCC3)CC2)C1` [Example 109, 1-[(4-cyclobutyl-1,4-diazepan-1-yl)carbonyl]azetidin-3-amine], the 50% inhibitory concentration (IC50) is less than 100 nM.
The result for `O=C(N1CCCN(C2CCC2)CC1)N1CC(Oc2ccc(Br)cn2)C1` [Example 22, 1-({3-[(5-bromopyridin-2-yl)oxy]azetidin-1-yl}carbonyl)-4-cyclobutyl-1,4-diazepane] reads less than 100 nM; that for `O=C(N1CCCN(C2CCC2)CC1)N1CC(Oc2ccc(N3CCCC3=O)cc2)C1` [Example 18, 1-[4-({1-[(4-cyclobutyl-1,4-diazepan-1-yl)carbonyl]azetidin-3-yl}oxy)phenyl]pyrrolidin-2-one], less than 100 nM.
On to `Cc1nccc(OC2CN(C(=O)N3CCCN(C4CCC4)CC3)C2)n1` [Example 65, 1-cyclobutyl-4-({3-[(2-methylpyrimidin-4-yl)oxy]azetidin-1-yl}carbonyl)-1,4-diazepane], for which the IC50 was less than 100 nM.
The result for `CNC(=O)C1CN(C(=O)N2CCCN(C3CCC3)CC2)C1` [Example 133, 1-[(4-cyclobutyl-1,4-diazepan-1-yl)carbonyl]-N-methylazetidine-3-carboxamide] reads 100 to 500 nM; that for `O=C(N1CCCN(C2CCC2)CC1)N1CC(Oc2ccccc2Cl)C1` [Example 33, 1-{[3-(2-chlorophenoxy)azetidin-1-yl]carbonyl}-4-cyclobutyl-1,4-diazepane], less than 100 nM.
The result for `O=C(N1CCN(C2CCC2)CC1)N1CC(Oc2ccccc2)C1` [Example 38, 1-cyclobutyl-4-[(3-phenoxyazetidin-1-yl)carbonyl]piperazine] reads less than 100 nM.
The result for `COc1ccc(OC2CN(C(=O)N3CCCN(C4CCC4)CC3)C2)cc1` [Example 86, 1-cyclobutyl-4-{[3-(4-methoxyphenoxy)azetidin-1-yl]carbonyl}-1,4-diazepane] reads less than 100 nM; that for `O=C1CN(C(=O)N2CCCN(C3CCC3)CC2)C1` [Example 108, 1-[(4-cyclobutyl-1,4-diazepan-1-yl)carbonyl]azetidin-3-one], less than 100 nM; that for `O=C(N1CCCN(C2CCC2)CC1)N1CC(Oc2ccnc3ccccc23)C1` [Example 68, 4-({1-[(4-cyclobutyl-1,4-diazepan-1-yl)carbonyl]azetidin-3-yl}oxy)quinoline], less than 100 nM.
For the molecule `O=C(N1CCCN(C2CCC2)CC1)N1CC(Oc2ccc3c(n2)CCN(C2CCC2)C3)C1` [Example 42, 6-cyclobutyl-2-({1-[(4-cyclobutyl-1,4-diazepan-1-yl)carbonyl]azetidin-3-yl}oxy)-5,6,7,8-tetrahydro-1,6-naphthyridine], the IC50 is less than 100 nM.
The result for `CN1CCN(Cc2ccc(OC3CN(C(=O)N4CCCN(C5CCC5)CC4)C3)cc2)CC1` [Example 20, 1-cyclobutyl-4-[(3-{4-[(4-methylpiperazin-1-yl)methyl]phenoxy}azetidin-1-yl)carbonyl]-1,4-diazepane] reads less than 100 nM; that for `O=C(N1CCCN(C2CCC2)CC1)N1CC(Oc2ccc(-n3cccn3)cc2)C1` [Example 87, 1-cyclobutyl-4-({3-[4-(1H-pyrazol-1-yl)phenoxy]azetidin-1-yl}carbonyl)-1,4-diazepane], less than 100 nM.
The result for `O=C(N1CCCN(C2CCC2)CC1)N1CC(COc2ccc(C(F)(F)F)nc2)C1` [Example 153, 1-cyclobutyl-4-{[3-({[6-(trifluoromethyl)pyridin-3-yl]oxy}methyl)azetidin-1-yl]carbonyl}-1,4-diazepane] reads less than 100 nM; that for `O=C(N1CCCN(C2CCC2)CC1)N1CC(Oc2ccc(Cn3cccn3)cc2)C1` [Example 16, 1-cyclobutyl-4-({3-[4-(1H-pyrazol-1-ylmethyl)phenoxy]azetidin-1-yl}carbonyl)-1,4-diazepane], less than 100 nM.
The result for `Nc1cc(OC2CN(C(=O)N3CCCN(C4CCC4)CC3)C2)ccn1` [Example 57, 4-({1-[(4-cyclobutyl-1,4-diazepan-1-yl)carbonyl]azetidin-3-yl}oxy)pyridin-2-amine] reads less than 100 nM; that for `CNC(=O)c1ccc(OC2CN(C(=O)N3CCCN(C4CCC4)CC3)C2)cc1` [Example 8, 4-({1-[(4-cyclobutyl-1,4-diazepan-1-yl)carbonyl]azetidin-3-yl}oxy)-N-methylbenzamide], less than 100 nM.
`CNC(=O)c1cccc(OC2CN(C(=O)N3CCCN(C4CCC4)CC3)C2)c1` [Example 75, 3-({1-[(4-cyclobutyl-1,4-diazepan-1-yl)carbonyl]azetidin-3-yl}oxy)-N-methylbenzamide]: the IC50 was less than 100 nM.
The result for `CNC(=O)c1ccc(N(C)C2CN(C(=O)N3CCCN(C4CCC4)CC3)C2)cn1` [Example 111, 5-[{1-[(4-cyclobutyl-1,4-diazepan-1-yl)carbonyl]azetidin-3-yl}(methyl)amino]-N-methylpyridine-2-carboxamide] reads less than 100 nM; that for `O=C([C@H]1C[C@@H](Oc2ccc(C(F)(F)F)cn2)C1)N1CCCN(C2CCC2)CC1` [Example 104, 1-cyclobutyl-4-[(cis-3-{[5-(trifluoromethyl)pyridin-2-yl]oxy}cyclobutyl)carbonyl]-1,4-diazepane], less than 100 nM; that for `O=C(N1CCCN(C2CCC2)CC1)N1CC(Oc2ccc(CN3CCCCC3)cc2)C1` [Example 19, 1-cyclobutyl-4-({3-[4-(piperidin-1-ylmethyl)phenoxy]azetidin-1-yl}carbonyl)-1,4-diazepane], less than 100 nM.
With `O=C(N1CCCN(C2CCC2)CC1)N1CC(Oc2ccc(Cl)cc2)C1` [Example 14, 1-{[3-(4-chlorophenoxy)azetidin-1-yl]carbonyl}-4-cyclobutyl-1,4-diazepane], the IC50 was less than 100 nM.
The result for `CN(C(=O)C1CN(C(=O)N2CCCN(C3CCC3)CC2)C1)c1ccc(Cl)cc1` [Example 146, N-(4-chlorophenyl)-1-[(4-cyclobutyl-1,4-diazepan-1-yl)carbonyl]-N-methylazetidine-3-carboxamide] reads less than 100 nM; that for `CNC(=O)c1ccc(OC2CN(C(=O)N3CCCN(C4CCC4)CC3)C2)c(F)c1` [Example 43, 4-({1-[(4-cyclobutyl-1,4-diazepan-1-yl)carbonyl]azetidin-3-yl}oxy)-3-fluoro-N-methylbenzamide], less than 100 nM; that for `O=C(N1CCCN(C2CCC2)CC1)N1CC(Oc2ccc(Cl)nc2)C1` [Example 46, 1-({3-[(6-chloropyridin-3-yl)oxy]azetidin-1-yl}carbonyl)-4-cyclobutyl-1,4-diazepane], less than 100 nM.
The figure for `O=C(C1CN(C(=O)N2CCCN(C3CCC3)CC2)C1)N1CCCCCC1` [Example 128, 1-{[3-(azepan-1-ylcarbonyl)azetidin-1-yl]carbonyl}-4-cyclobutyl-1,4-diazepane] is less than 100 nM.

(Values after patent publication US8691804B2 (Evotec AG, priority 2008, dated 2014).)
